According to ChEMBL document CHEMBL5257074, “Structure Elucidation and Biosynthesis of Nannosterols A and B, Myxobacterial Sterols from Nannocystis sp. MNa10993” (J Nat Prod, 2023):
The source made the active and inactive calls.

Assays:
Escherichia coli [1] = test: Antibacterial activity against Escherichia coli JW0451-2 assessed as inhibition of bacterial growth measured after 18 to 48 hrs by microbroth dilution assay; format: functional, organism-based; conditions: time 18-48 hrs
Mucor hiemalis = test: Antifungal activity against Mucor hiemalis DSM 2656 assessed as inhibition of fungal growth measured after 18 to 48 hrs by microbroth dilution assay; format: functional, organism-based; conditions: time 18-48 hrs
Escherichia coli [2] = test: Antibacterial activity against Escherichia coli DSM 1116T assessed as inhibition of bacterial growth measured after 18 to 48 hrs by microbroth dilution assay; format: functional, organism-based; conditions: time 18-48 hrs
Pseudomonas aeruginosa = test: Antibacterial activity against Pseudomonas aeruginosa PA14 (DSM 19882) assessed as inhibition of bacterial growth measured after 18 to 48 hrs by microbroth dilution assay; format: functional, organism-based; conditions: time 18-48 hrs
Bacillus subtilis = test: Antibacterial activity against Bacillus subtilis DSM10T assessed as inhibition of bacterial growth measured after 18 to 28 hrs by microbroth dilution assay; format: functional, organism-based; conditions: time 18-28 hrs
Staphylococcus aureus = test: Antibacterial activity against Staphylococcus aureus Newman assessed as inhibition of bacterial growth measured after 18 to 28 hrs by microbroth dilution assay; format: functional, organism-based; conditions: time 18-28 hrs
Candida albicans = test: Antifungal activity against Candida albicans DSM 1665 assessed as inhibition of fungal growth measured after 18 to 48 hrs by microbroth dilution assay; format: functional, organism-based; conditions: time 18-48 hrs
HepG2 = test: Antiproliferative activity against human HepG2 cells incubated for 5 days by MTT assay; format: functional, cell-based; conditions: time 5.0 day
[3] = test system: Mycolicibacterium smegmatis; test: Antibacterial activity against Mycobacterium smegmatis (DSM 43756) assessed as inhibition of bacterial growth measured after 18 to 28 hrs by microbroth dilution assay; format: functional, organism-based; conditions: time 18-28 hrs

Measured: Activity

C[C@H](CC[C@@H](O)C(C)(C)O)[C@H]1C[C@@H](O)[C@H]2[C@@H]3C(=O)C[C@H]4C[C@@H](O)CC[C@]4(C)[C@H]3CC[C@@]21CO
inactive: all assays above

C[C@H](CC[C@@H](O)C(C)(C)O)[C@H]1C[C@@H](O)[C@H]2[C@@H]3C(=O)C[C@H]4C[C@@H](O)CC[C@]4(C)[C@H]3CC[C@@]21C
inactive: all assays above
